Several values for one entry are separate records, joined by “and”; a condition that tells them apart may be missing. Identical values can stand only once.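 Exposure lasted 48 hours, with cells grown in 96-well plates and compounds tested at five concentrations. Abbreviation: GI50, concentration required for 50% inhibition of growth. TGI marks complete inhibition of growth.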 Where a SMILES comes first, the peptide text is derived from it. The star is where a group is joined. Boc = CC(C)(C)OC(=O)*
Legend:
Assay in all cases: DTP human tumour cell line panel, 48 h
[1] = test system: 786-0 renal
[2] = test system: ACHN renal
[3] = test system: BT-549 breast
[4] = test system: CCRF-CEM leukemia
[5] = test system: COLO 205 colon
[6] = test system: HS 578T breast
[7] = test system: RPMI-8226 leukemia
[8] = test system: SF-295 CNS
[9] = test system: SNB-75 CNS
[10] = test system: SR leukemia

| Structure (SMILES) | GI50 [1] | TGI [1] | GI50 [2] | TGI [2] | GI50 [3] | TGI [3] | GI50 [4] | TGI [4] | GI50 [5] | TGI [5] | GI50 [6] | TGI [6] | GI50 [7] | TGI [7] | GI50 [8] | TGI [8] | GI50 [9] | TGI [9] | GI50 [10] | TGI [10] |
| --- | --- | --- | --- | --- | --- | --- | --- | --- | --- | --- | --- | --- | --- | --- | --- | --- | --- | --- | --- | --- |
| O=C(Nc1ccc(Cl)c(C(F)(F)F)c1)c1ccc(NC2=C(Cl)C(=O)N(Cc3ccccc3)C2=O)cc1 | 16.2 µM | 32.9 µM | 4.18 µM | 15.2 µM | 2.28 µM | 5.78 µM | 1.98 µM | 6.07 µM | 19.2 µM | 56.8 µM | 2.43 µM | 5.67 µM | 2.56 µM | 6.58 µM | 19.7 µM | 52.8 µM | 13.8 µM | 33.9 µM | 1.65 µM | 4.33 µM |
| O=S(=O)(Nc1ccc(Cl)cc1Cl)c1ccc(-c2cnc(C3CC3)o2)cc1 | 0.615 µM | > 86.5 µM | 0.639 µM | 21.5 µM | 0.663 µM | 36.3 µM | 0.509 µM | > 100 µM | 1.13 µM | 11.1 µM | 0.365 µM | 48.5 µM | 0.903 µM | 44.8 µM | 0.335 µM | 3.4 µM | 0.185 µM | 0.75 µM | 0.42 µM | > 58.9 µM |
| COC(=O)c1ccc2c(c1)/C(=C\c1cc(Br)c(O)c(Br)c1)C(=O)N2 | 10.1 µM | > 25 µM | 6.27 µM | > 25 µM | 10.6 µM | > 25 µM | 5.98 µM | > 25 µM | 6.8 µM | > 25 µM | 4.75 µM | > 22.6 µM | 5.21 µM | > 25 µM | 5.1 µM | > 24 µM | 5.4 µM | > 25 µM | 8.11 µM | > 25 µM |
| COC12C(COC(N)=O)C3=C(C(=O)C(C)=C(N)C3=O)N1CC1C2N1C (stereo unspecified) | – | 68.5 µM | – | 25.3 µM | – | 28.3 µM | – | 51.7 µM | – | 21.6 µM | – | 75.7 µM | – | > 85.5 µM | – | 18.1 µM | – | 11.8 µM | – | 56.5 µM |
| COc1cc2c3c(c1OC)-c1cc4c(cc1CC3(C#N)N(C(=O)c1ccccc1)CC2)OCO4 (stereo unspecified) | – | 57.7 µM | – | > 97.2 µM | – | > 100 µM | – | > 100 µM | – | > 100 µM | – | 82 µM | – | > 100 µM | – | 58.7 µM | – | 28.1 µM | – | > 100 µM |
| COC(=O)C(C)NC(=O)C(CCSC)NC(=O)C(Cc1ccccc1)NC(=O)OC(C)(C)C (stereo not drawn) (Boc-Phe-Met-Ala-OMe; configuration not given here) | 43.3 µg/mL | > 100 µM | – | > 100 µM | 18.3 µg/mL | > 100 µM | 2.63 µg/mL | – | 24.2 µg/mL | 47.4 µg/mL and > 100 µM | – | > 100 µM | 22.4 µg/mL | 49.5 µg/mL and > 100 µM | – | > 100 µM | 99.7 µg/mL | > 100 µM | 21.4 µg/mL | 44.8 µg/mL and > 100 µM |
| COc1ccc(-c2cc(/C=C/C(=O)c3ccc(OC)c(OC)c3)[nH]n2)cc1 | 1.6 µM | 3.09 µM | 1.68 µM | 3.83 µM | 1.68 µM | 3.53 µM | 1.34 µM | 4.14 µM | 1.76 µM | 3.3 µM | 3.38 µM | 29 µM | 0.32 µM | 1.33 µM | 2.08 µM | 5.37 µM | 1.55 µM | 3.84 µM | 0.677 µM | 3.74 µM |
| Cc1ccc(Nc2oc(-c3ccccc3)nc2[P+](c2ccccc2)(c2ccccc2)c2ccccc2)cc1 | 1.1 µM | 2.45 µM | 0.988 µM | 2.76 µM | 1.41 µM | 2.92 µM | 0.547 µM | 4.77 µM | 1.33 µM | 3.1 µM | 1.41 µM | 3.99 µM | 0.243 µM | 0.639 µM | 1.24 µM | 2.6 µM | 1.15 µM | 3.71 µM | 0.698 µM | 2.44 µM |
| C=CCc1ccc(O)c(-c2ccc(O)c(CC=C)c2)c1 | 16.8 µM | 33.5 µM | 15.8 µM | 30.6 µM | 13.2 µM | 27.5 µM | 13.1 µM | > 100 µM | 18.5 µM | 34.1 µM | 14.2 µM | 39.7 µM | 14.6 µM | > 55.9 µM | 19.6 µM | 44.7 µM | 22.1 µM | > 46.6 µM | 14.8 µM | > 100 µM |
